Test results as given in patent US20240383869A1, “ARYLACETYL INHIBITORS OF TG2 AND USES THEREOF” (UNIVERSITY OF OTTAWA, priority 2021, published 2024).
Where a SMILES comes first, the peptide text is derived from it. [ ]: non-standard residue; d: D form. The star is where a group is joined. DON = [N-]=[N+]=CC(=O)CC[C@H](N)C(=O)O; Cbz = O=C(OCc1ccccc1)*

Tests used:
[1] = test system: glioblastoma multiforme (GBM) cell lines; conditions: Zhang et al. 2013; cited from earlier work
[2] = test system: TG2 relative to other human transglutaminases; conditions: shown previously (Akbar et al. 2017); cited from earlier work
SCC-13 cells = conditions: shown previously; read-out: concentration reducing ECS cell invasion through Matrigel by ~50% relative to vehicle-treated cells; cited from earlier work
hTG2 [3] = target: T1, hTG2 (Homo sapiens, UniProt P21980); test: In vitro GTP binding assay (BODIPY GTP-γ-S fluorescence); conditions: inhibitor 2×KI, 30 minutes at 25° C.; 3 μM BODIPY GTP-γ-S
T1 sequence (P21980 1-687): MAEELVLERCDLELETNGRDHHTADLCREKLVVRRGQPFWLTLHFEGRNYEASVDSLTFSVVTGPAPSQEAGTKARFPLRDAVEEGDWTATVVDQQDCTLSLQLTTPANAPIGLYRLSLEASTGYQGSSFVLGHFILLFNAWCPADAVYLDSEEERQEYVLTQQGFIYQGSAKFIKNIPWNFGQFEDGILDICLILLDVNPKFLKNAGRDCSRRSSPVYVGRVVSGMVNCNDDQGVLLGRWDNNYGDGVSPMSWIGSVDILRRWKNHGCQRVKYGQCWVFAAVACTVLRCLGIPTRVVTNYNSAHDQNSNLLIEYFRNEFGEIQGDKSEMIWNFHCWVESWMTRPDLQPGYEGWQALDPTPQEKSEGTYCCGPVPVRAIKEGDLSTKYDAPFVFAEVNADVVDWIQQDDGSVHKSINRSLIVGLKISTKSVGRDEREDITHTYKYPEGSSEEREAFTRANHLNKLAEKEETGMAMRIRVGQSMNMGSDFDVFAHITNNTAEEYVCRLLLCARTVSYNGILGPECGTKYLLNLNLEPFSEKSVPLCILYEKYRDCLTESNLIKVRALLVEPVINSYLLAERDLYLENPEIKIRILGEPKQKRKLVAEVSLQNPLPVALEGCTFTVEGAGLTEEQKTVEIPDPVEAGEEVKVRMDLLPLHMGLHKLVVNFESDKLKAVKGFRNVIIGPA
Protocol: Previously we proposed a mechanism of action for the NC9, VA4 and AA9 inhibitors based on their ability to react covalently with the open conformation of TG2, locking the enzyme in that conformation and thereby abolishing the enzyme's ability to bind GTP and act as a G-protein. […] We used the same in vitro GTP binding assay to measure the ability of representative phenylacetyl inhibitors 67 and 72 to abolish GTP binding, as follows:
In vitro GTP binding assay. GTP binding was measured using a method similar to that reported previously (McEwen, D. P. et al., “Fluorescent BODIPY-GTP analogs: Real-time measurement of nucleotide binding to G proteins.” Anal. Biochem. 2001, 291 (1), 109-117). […] The buffer was then exchanged to 100 mM MOPS (pH=7.0), 1 mM EGTA and 5 mM MgCl2 to remove calcium via dialysis using a 10-kDa molecular weight cut off membrane. The fluorescent GTP analog was added to give a final concentration of 3.0 μM and fluorescence was measured on a microplate reader after 10 minutes of incubation (Ex/Em: 490/520 nm).

hTG2 [4] = target: T1, hTG2; conditions: shown previously; cited from earlier work

| Structure (SMILES) | proliferation of GBM cell lines [1] | selectivity for TG2 compared to the other major transglutaminase isozymes [2] | EC50 (SCC-13 cells) [µM] | also measured |
| --- | --- | --- | --- | --- |
| CN(C)c1cccc2c(S(=O)(=O)NCCCCCN)cccc12 [monodansylcadaverine] | reduce proliferation in two out of three | – | – | – |
| C=CC(=O)NCCCC[C@H](NC(=O)OCc1ccccc1)C(=O)NCCOCCOCCNS(=O)(=O)c1cccc2c(N(C)C)cccc12 [NC9] | – | good selectivity for TG2 | ~20 | – |
| C=CC(=O)NCCCC[C@H](NC(=O)Cc1ccccc1)C(=O)N1CCN(C(=O)c2cccc3ccccc23)CC1 [Inhibitor 67, (S)-N-(6-(4-(1-naphthoyl)piperazin-1-yl)-6-oxo-5-(2-phenylacetamido)hexyl)acrylamide] | – | – | – | inhibition of GTP binding of hTG2 (hTG2 [3]): abolished the GTP binding ability |
| COC(=O)[C@H](CC(C)C)NC(=O)[C@@H]1CCCN1C(=O)[C@@H](NC(=O)[C@H](CCC(=O)C=[N+]=[N-])NC(=O)OCc1ccccc1)C(C)C [Z-DON] (Cbz-[DON]VPL-OMe) | reduce proliferation in two out of three | – | – | – |
| C=CC(=O)NCCCC[C@H](NC(=O)OCc1ccccc1)C(=O)N1CCN(S(=O)(=O)c2cccc3c(N(C)C)cccc23)CC1 [VA4] | – | good selectivity for TG2 | 3.9 | suppression of TG2 binding of GTP-γ-S-FL BODIPY (hTG2 [4]): suppress the ability of TG2 to bind GTP-γ-S-FL BODIPY |
